{"source": "paper PMC4417197", "about": "“Engineering Saccharomyces pastorianus for the co-utilisation of xylose and cellulose from biomass” (Microbial Cell Factories, 2015)", "key": {"[1]": {"target": "T1, XR (xylose reductase, xyl1) (Trichoderma reesei, UniProt Q876L8)", "T1 construct": "cell-free extract", "T1 sequence (Q876L8 1-324)": "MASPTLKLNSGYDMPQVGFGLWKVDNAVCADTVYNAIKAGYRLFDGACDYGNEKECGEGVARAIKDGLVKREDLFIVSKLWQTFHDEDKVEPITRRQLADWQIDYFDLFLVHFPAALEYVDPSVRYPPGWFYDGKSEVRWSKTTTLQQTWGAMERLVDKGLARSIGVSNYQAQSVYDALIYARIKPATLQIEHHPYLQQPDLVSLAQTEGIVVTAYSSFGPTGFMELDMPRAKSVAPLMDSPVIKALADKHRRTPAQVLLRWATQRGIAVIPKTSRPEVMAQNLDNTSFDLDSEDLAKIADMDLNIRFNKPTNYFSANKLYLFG", "experiment": "NADPH oxidation at […] nm in cell-free extract of expressing yeast", "format": "biochemical", "conditions": "50 mM xylose, 0.34 mM NADPH, 25 mM potassium phosphate pH 7.0, 30 C"}, "[2]": {"target": "T2, XDH (xylitol dehydrogenase, xdh1) (Trichoderma reesei, UniProt Q876R2)", "T2 construct": "cell-free extract", "T2 sequence (Q876R2 1-363)": "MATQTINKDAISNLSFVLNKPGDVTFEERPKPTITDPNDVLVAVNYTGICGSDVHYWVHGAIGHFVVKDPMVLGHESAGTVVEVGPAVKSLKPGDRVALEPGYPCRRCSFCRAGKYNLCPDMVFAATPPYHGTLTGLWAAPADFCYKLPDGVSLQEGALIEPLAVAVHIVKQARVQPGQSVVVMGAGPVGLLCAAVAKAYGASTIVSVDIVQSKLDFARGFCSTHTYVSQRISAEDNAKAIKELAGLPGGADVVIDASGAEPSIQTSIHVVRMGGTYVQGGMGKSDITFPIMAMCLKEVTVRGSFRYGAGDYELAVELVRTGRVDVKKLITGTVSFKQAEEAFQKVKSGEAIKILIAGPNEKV", "experiment": "NAD+ reduction at […] nm in cell-free extract of expressing yeast", "format": "biochemical", "conditions": "0.15 M xylitol, 0.4 mM NAD+, 25 mM potassium phosphate pH 7.0"}}}
{"smiles": "NC(=O)C1=CN([C@@H]2O[C@H](COP(=O)(O)OP(=O)(O)OC[C@H]3O[C@@H](n4cnc5c(N)ncnc54)[C@H](OP(=O)(O)O)[C@@H]3O)[C@@H](O)[C@H]2O)C=CC1", "note": "[NADPH]", "values": [{"measurement": "NADPH oxidation at 340 nm in cell-free extract of expressing yeast", "setting": "[1]", "value": "measuring the oxidation of the reduced form of nicotinamide adenine dinucleotide phosphate (NADPH)"}]}
{"smiles": "NC(=O)c1ccc[n+]([C@@H]2O[C@H](COP(=O)(O)OP(=O)(O)OC[C@H]3O[C@@H](n4cnc5c(N)ncnc54)[C@H](O)[C@@H]3O)[C@@H](O)[C@H]2O)c1", "note": "[NAD^+]", "values": [{"measurement": "NAD+ reduction at 340 nm in cell-free extract of expressing yeast", "setting": "[2]", "value": "measuring the reduction of nicotinamide adenine dinucleotide (NAD^+) to NADH"}]}
